Data published in publication PMC3691182 (PLoS ONE, 2013).
“Also recorded” adds a separate entry of the source. Read-outs that look alike come from different tables or passages of the source.

Tests used:
sodium channel = conditions: cited from earlier work
Excerpt: Huwentoxin-IV (HWTX-IV), a tetrodotoxin-sensitive (TTX-s) sodium channel antagonist, is found in the venom of the Chinese spider Ornithoctonus huwena. A naturally modified HWTX-IV (mHWTX-IV), having a molecular mass 18 Da lower than HWTX-IV, has also been isolated from the venom of the same spider. […] Previous research has identified nearly 150 of these components in the Chinese bird spider, Ornithoctonus huwena, which is one of the most venomous spiders in China. […] To address this question, we adopted a triple-pulse protocol in which a test pulse (−10 mV) following a strong depolarization (+200 mV, 500 ms) was used to measure available TTX-S sodium currents.

[1] = test system: neuronal TTX-sensitive voltage-gated sodium channels; conditions: cited from earlier work
DRG neuron = test system: DRG neuron; parameters: method as in PMID 16267209, PMID 19409400; conditions: in words; ref [27], [28]; cited from earlier work
[2] = test system: TTX-resistant voltage-gated sodium channels; conditions: in words; reference not given; cited from earlier work
Excerpt: Previous research has identified nearly 150 of these components in the Chinese bird spider, Ornithoctonus huwena, which is one of the most venomous spiders in China. Most of the toxins have six cystine residues adopting inhibitor cystine-knot (ICK) motif with a 1–4, 2–5, 3–6 disulfide bonding pattern; the biological activities of some peptide toxins were thoroughly investigated.

Nav1.7 = assay: Triple-pulse protocol, recovery of Nav1.7 current following strong depolarization (HEK293 cells); assay type: cell-based
[3] = test system: TTX-R sodium channel of DRG neurons; assay: Whole-cell patch-clamp, TTX-R sodium currents in DRG neurons; assay type: cell-based, adult Sprague-Dawley rat
[4] = test system: TTX-S sodium channels in rat DRG neurons; assay: Time course for block of TTX-S currents and reversal of block on washing; assay type: cell-based
[5] = test system: TTX-S sodium channels in rat DRG neurons; assay: Current-voltage relationship, conductance, steady-state activation and inactivation of TTX-S sodium channel; assay type: cell-based
[6] = test system: TTX-S voltage-gated sodium channel of DRG neurons; assay: Whole-cell patch-clamp, inhibition of TTX-S sodium currents in DRG neurons; assay type: cell-based, adult Sprague-Dawley rat
domain II of Nav1.7 = conditions: in words; ref [11]; cited from earlier work

In the case of ProTx-II, the “Reversal of binding to sodium channels by strong depolarization (literature)” value (sodium channel; in words, ref [11], [19], [20]) is listed as “can be reversed by strong depolarization”.

For jingzhaotoxin-34 [JZTX-34], the “Inhibition of neuronal TTX-sensitive sodium channels (literature)” value ([1]; in words, ref [9]) is listed as “inhibited neuronal TTX-sensitive voltage-gated sodium channels”.

For Jingzhaotoxin-IX [JZTX-IX], the “Action under extreme depolarization on DRG neuron compared with mHWTX-IV” value (DRG neuron) is listed as “similar”.

In the case of Huwentoxin-IV [HWTX-IV], the “Dissociation at moderate depolarization” value (sodium channel) is listed as “dissociates at moderate voltage depolarization voltages”, the “Reversal of binding to sodium channels by strong depolarization (literature)” value (sodium channel) is listed as “can be reversed by strong depolarization” and the “Reversibility of inhibition by strong depolarization (literature)” value (sodium channel) is listed as “reversible by strong depolarization”. For the same substance, the “Voltage above which currents can be observed (dissociation by strong depolarization)” value (sodium channel) was greater than 70 mV, the “Effect on TTX-resistant sodium channels (literature)” value [2] was “no significant effect” and the “Recovery of Nav1.7 current, +50 mV” value (Nav1.7; 1 µM toxin, HEK293 cells, +50 mV for 500 ms, in words) was “little recovery”. The “Recovery of Nav1.7 current, +100 mV” value (Nav1.7; 1 µM toxin, HEK293 cells, +100 mV for 500 ms, in words) was “little recovery”, the “Recovery of Nav1.7 current, +150 mV” value (Nav1.7; 1 µM toxin, HEK293 cells, +150 mV, five cells) was “about 34%” and the “Recovery of Nav1.7 current, +200 mV” value (Nav1.7; 1 µM toxin, HEK293 cells, +200 mV, five cells) was roughly 78%. The “Recovery of Nav1.7 current by extreme depolarization (summary)” value (Nav1.7; abstract summary, in words) was “voltage-dependent and was induced by extreme depolarization”, the “Inhibition of TTX-S sodium channel in DRG neurons (literature)” value [1] was “specifically inhibited” and the IC50 ([1]; read-out: IC50, inhibition of neuronal TTX-sensitive sodium channels (literature)) was 30 nM. The “Effect on TTX-R sodium currents” value [3] was “no effect”, the “Dissociation after washing, in words” value [4] was “slowly dissociated” and the “Time course for inhibition of TTX-S currents” value [4] was 25.4 s. For the same substance, the “Time course of dissociation after washing” value [4] was 88.3 s, the “Channel conductance (conductance–voltage curve)” value [5] was “did not change channel conductance” and the “Steady-state activation and inactivation, comparison of HWTX-IV and mHWTX-IV” value [5] was “no obvious difference”. The “Steady-state inactivation of TTX-S sodium channel” value [5] was “No shift of the steady-state inactivation curve”, the “Threshold of activation and reversal potential of TTX-S sodium channel (I–V)” value [5] was “did not change the threshold of activation and alter the reversal potential” and the IC50 [6] was 42.9 ± 1.72 nM. For the same substance, the “Inhibition of TTX-S currents” value [6] was “almost completely inhibited; also recorded: significantly reduced” and the “Binding site on Nav1.7” value (domain II of Nav1.7) was “binds with the S3–S4 linker D816 and E818 in domain II of Nav1.7 by electrostatic interaction”.
